The text below walks through data of patent US20100075907A1, “NEUROMEDIN U RECEPTOR AGONISTS AND USES THEREOF” (priority 2006, published 2010).

Non-standard residues stand in square brackets, D forms with d. Residues, ends and D or L forms follow the SMILES beside them. *: point of attachment. Succinimide(1-Et,3-yl) = CCN1C(=O)CC(*)C1=O; Palmitoyl = CCCCCCCCCCCCCCCC(=O)*

The target of one experiment is T1, mouse NMUR1-ATG (Mus musculus, UniProt O55040).
T1 sequence (O55040 1-428): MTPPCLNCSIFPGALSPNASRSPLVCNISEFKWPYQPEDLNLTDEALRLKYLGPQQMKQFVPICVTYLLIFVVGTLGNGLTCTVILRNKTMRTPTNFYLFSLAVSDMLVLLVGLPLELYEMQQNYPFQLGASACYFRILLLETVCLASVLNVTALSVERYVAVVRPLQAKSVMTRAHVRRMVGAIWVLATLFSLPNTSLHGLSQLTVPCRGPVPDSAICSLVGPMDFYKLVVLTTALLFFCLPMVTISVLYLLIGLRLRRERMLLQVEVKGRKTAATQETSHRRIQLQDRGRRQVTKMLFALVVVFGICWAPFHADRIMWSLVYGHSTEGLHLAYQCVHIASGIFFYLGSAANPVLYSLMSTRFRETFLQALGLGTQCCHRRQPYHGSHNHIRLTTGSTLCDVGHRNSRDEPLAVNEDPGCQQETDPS
As to the kind of experiment: FLIPR calcium mobilization assay, mouse NMUR1-ATG. Format: cell-based. Further details: expressed in transfected cells; host or cells: FLP-In CHO or HEK-293 FLP-In cells (pcDNA5). Conditions: for IC50: functional data. From the text: Human, mouse or rat cDNAs encoding NMUR1 or NMUR2 (as described in Howard et al. Nature 406: 70-74 (2000) were subcloned in pcDNA5 (Invitrogen) and transfected into FLP-In CHO cells and HEK-293 FLP-In cells purchased from Invitrogen (Carlsbad, Calif.) using lipofectamine (Invitrogen). The Flp-In system allows integration and expression of a particular gene of interest at a specific genomic location utilizing the Flp recombinase from yeast. The transfected cells were selected by growth in medium containing 200 μg/mL hygromycin (Invitrogen). Populations were frozen at early passage numbers, and these stocks were used for further studies. Stable clones that expressed the mRNAs were identified functionally by FLIPR as well as by RT-PCR. […] Two different rodent NMUR1 cell lines were thus generated: one with the codon as predicted from the genomic databases and another cell line with an engineered methionine (ATG) as the start codon. Additionally, stable cell lines expressing the human receptors were generated in HEK-293/aeq17 cells which stably express the aequorin gene under the CMV promoter. The human NMUR2 cDNA was cloned into pcDNA3.1 and human NMUR1 was subcloned into pIRES-puro (Clontech, Mountain View, Calif.), after transfection cells were selected in media containing G418 and either hygromycin (NMUR2) or puromycin (NMUR1).
The NMU receptors signal primarily through Gαq/11 proteins; therefore calcium mobilization assays can be utilized for functional activity.
Stable cell lines expressing human and or rodent NMUR1 or human NMUR2 receptors were plated at a density of 12,000 cells per well overnight on poly-lysine coated 384-well black-walled plates. The following day, the media was removed from the plates and the cells were subsequently loaded with Fluo-3 (Molecular Probes), a calcium sensitive dye, diluted in FLIPR buffer (1× Hank's buffered saline containing 20 mM HEPES, 0.1% BSA, 2.5 mM probenecid (Sigma) and 1.6 mM TR40). All reagents are from Invitrogen unless otherwise noted. Peptide stocks were resuspended in DMSO at a stock concentration of 2 mM and diluted in FLIPR buffer on the day of the experiment to a 4 μM working stock solution.
After a 90 minute incubation at room-temperature, cell plates were loaded onto a FLIPR (Molecular Devices) to monitor cellular fluorescence (excitation=488 nm; emission=540 nm) before and after compound/peptide addition. Eight to twelve point dose responses were tested on NMUR-expressing cell lines using FLIPR with 1 μM peptide as the highest dose. The response after peptide addition was taken as the maximum fluorescence units minus the fluorescence immediately prior to stimulation for each well. EC50 values were calculated using GraphPad Prism (San Diego, Calif.) software.
In vitro responses of Neuromedin U receptor agonists (NMU1 to NMU25) in the FLIPR assay for human (Table 3), mouse (Table 4) and rat (Table 5) NMUR1 and NMUR2. EC50s are reported in nM values. Percent activity refers to the maximum response at 1 μM compared to the hNMU-25 response at the same concentration. NT=not tested.
On the technique in general: A change in cytosolic calcium serves as a functional read-out for many receptors and channels.

The next experiment has as its target hNMUR2 (Homo sapiens, UniProt Q9GZQ4). As to the kind of experiment: 125I-hNMU-25 binding assay, human NMUR2 membranes. Further details: expressed in transfected cells; host or cells: HEK-293 FLP-In cells (pcDNA5); HEK-293/aeq17 lines (pcDNA3.1) were also made; % inhibition of NMU-25 binding / % Activity: concentration or dose not given beside the values. Conditions: for IC50: binding; for IC50 / % inhibition of NMU-25 binding: human R2. The protocol: Confluent cell monolayers expressing NMU receptors (the HEK cells described above) were harvested with phosphate buffered saline, collected by centrifugation, and resuspended in membrane buffer (50 mM TrisCl pH 7.4, 5 mM MgCl2, 1× Protease Inhibitor Cocktail, 10 μM phosphoramidon). After the cell pellet was homogenized, the solution was centrifuged at 18,000 rpm for 20 minutes at 4° C. The pellet was resuspended in membrane buffer to yield a final concentration of 0.5-5 μg/μL of membrane and stored at −80° C.
Experiments were performed in assay buffer (25 mM TrisCl, pH 7.4, 10 mM MgCl2, 2 mM EDTA, 1× Protease Inhibitor Cocktail, 100 μg/mL Bacitricin, 10 μM phosphoramidon) in 200 μL volumes in a 96-well format using 2-5 μg of membrane and 0.1 nM ^125I-hNMU-25 (about 12,000 cpm/well). For non-specific binding, 1 μM hNMU-25 was added. About 5 μL of peptides were added to measure antagonist activity, and the entire reaction was incubated at room temperature with shaking for 80 minutes. The reaction was terminated by rapid filtration through 0.3% poly-ethylenimine presoaked Millipore 96-well filter plates and washed with ice-cold buffer (5 mM TrisCl pH 7.4, 10 mM MgCl2, 2.5 mM EDTA, 0.04% Triton X-100). Plates were air-dried overnight at room temperature and recovered radioactivity was determined by standard scintillation counting. IC50 values were determined using GraphPad Prism software.
Concentration-response curves and radioligand-binding data were fitted using Prism (GraphPad Software). Results are summarized below in Tables 8 and 9.

Setting [1] is: functional, mouse R1-ATG, relative to native hNMU responses.

In general, IC50 refers to the concentration at which inhibition is half-maximal. One may read the EC50 as the concentration giving half of the maximal effect.

Chain of hNMUR2 (Q9GZQ4 whole entry): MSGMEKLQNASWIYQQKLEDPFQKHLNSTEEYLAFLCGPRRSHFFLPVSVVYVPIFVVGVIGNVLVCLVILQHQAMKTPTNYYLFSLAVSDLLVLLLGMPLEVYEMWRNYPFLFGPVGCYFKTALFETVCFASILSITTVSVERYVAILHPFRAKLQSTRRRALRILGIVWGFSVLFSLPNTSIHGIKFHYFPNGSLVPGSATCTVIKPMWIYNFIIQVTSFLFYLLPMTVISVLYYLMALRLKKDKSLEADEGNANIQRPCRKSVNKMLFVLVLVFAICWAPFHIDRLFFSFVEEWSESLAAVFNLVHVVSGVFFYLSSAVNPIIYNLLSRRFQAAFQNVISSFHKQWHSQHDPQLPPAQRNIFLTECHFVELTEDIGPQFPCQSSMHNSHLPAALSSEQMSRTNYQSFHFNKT

In the case of `CC(C)C[C@@H](NC(=O)[C@H](Cc1ccccc1)NC(=O)[C@H](Cc1ccc(O)cc1)NC(=O)CNC(=O)[C@H](CCCNC(=N)N)NC(=O)[C@H](CO)NC(=O)[C@H](CCC(N)=O)NC(=O)[C@H](CO)NC(=O)[C@H](C)NC(=O)[C@H](Cc1ccccc1)NC(=O)[C@@H]1CCCN1C(=O)[C@H](CO)NC(=O)[C@H](CCC(N)=O)NC(=O)[C@H](Cc1ccccc1)NC(=O)[C@H](CCC(=O)O)NC(=O)[C@H](CCC(=O)O)NC(=O)[C@H](CC(=O)O)NC(=O)[C@@H](NC(=O)[C@H](CCCNC(=N)N)NC(=O)[C@@H](N)Cc1ccccc1)C(C)C)C(=O)N[C@@H](Cc1c[nH]c2ccccc12)C(=O)N[C@@H](CCCNC(=N)N)C(=O)N1CCC[C@H]1C(=O)N[C@@H](CCCNC(=N)N)C(=O)N[C@@H](CC(N)=O)C(N)=O` [Agonist H] (H-FRVDEEFQSPFASQSRGYF[dL]WRPRN-NH2; N-terminus assumed), the IC50 was found to be 25 nM at mouse NMUR1-ATG (mouse R1-ATG) and 782 nM at hNMUR2. For the same molecule, the “% Activity” value amounted to 90% on mouse NMUR1-ATG (setting [1]) and 7% at hNMUR2 (Table 8, HEK-hR2, binding). On hNMUR2, the “% inhibition of NMU-25 binding” value was found to be 7%.

As to `CCN1C(=O)CC(SC[C@H](NC(C)=O)C(=O)N[C@@H](Cc2ccccc2)C(=O)N[C@@H](CCCNC(=N)N)C(=O)N[C@H](C(=O)N[C@@H](CC(=O)O)C(=O)N[C@@H](CCC(=O)O)C(=O)N[C@@H](CCC(=O)O)C(=O)N[C@@H](Cc2ccccc2)C(=O)N[C@@H](CCC(N)=O)C(=O)N[C@@H](CO)C(=O)N2CCC[C@H]2C(=O)N[C@@H](Cc2ccccc2)C(=O)N[C@@H](C)C(=O)N[C@@H](CO)C(=O)N[C@@H](CCC(N)=O)C(=O)N[C@@H](CO)C(=O)N[C@@H](CCCNC(=N)N)C(=O)NCC(=O)N[C@@H](Cc2ccc(O)cc2)C(=O)N[C@@H](Cc2ccccc2)C(=O)N[C@H](C)C(=O)N[C@@H](Cc2c[nH]c3ccccc23)C(=O)N[C@@H](CCCNC(=N)N)C(=O)N2CCC[C@H]2C(=O)N[C@@H](CCCNC(=N)N)C(=O)N[C@@H](CC(N)=O)C(N)=O)C(C)C)C1=O` (stereo partly shown) [NMU13] (Ac-C(Succinimide(1-Et,3-yl))FRVDEEFQSPFASQSRGYF[dA]WRPRN-NH2), the “% Activity” value on mouse NMUR1-ATG (setting [1]) was found to be 96%. Further, at mouse NMUR1-ATG (maximum response at 1 μM compared to hNMU-25, mouse NMUR1-ATG), the “% Activity” value came to 98.6%. At hNMUR2, the IC50 is above 1000 nM and the “% inhibition of NMU-25 binding” value amounted to 48%.

With “H-FRVDEEFQSPFASQSRGYFLFRPRN-NH2 [hNMU-25, reference compound]”, the IC50 at mouse NMUR1-ATG (mouse R1-ATG) is 0.9 nM; on hNMUR2, 0.056 nM. Besides, at hNMUR2 (Table 9, HEK-hR2, binding), the “% Activity” value came out at 100%.

With “Pam-C2FRVDEEFQSPFASQSRGYFLFRPRN-CONH2 ({Palmitoyl-C(PEG 40 kDa)}-FRVDEEFQSPFASQSRGYFLFRPRN-NH2) [NMU25, Pam = palmitoyl; C2 = Cys(PEG)240 kDa]”, in the experiment with mouse NMUR1-ATG (FLIPR, mouse NMUR1-ATG), the EC50 was 10.2 nM.
